Test results as given in PMC8819907 (Journal of Experimental & Clinical Cancer Research : CR, 2022).
“Also recorded” adds a separate entry of the source. Like-named read-outs stand apart in the source and are kept apart here.

Assays:
[1] = system: patients with advanced melanoma; conditions: cited from earlier work
[2] = system: MEK1; parameters: method as in ref 17 (a number printed in a supplementary file, which may have a reference list of its own: not looked up in the article's list); conditions: read-out: IC50 against MEK1; cited from earlier work
[3] = system: pERK; parameters: method as in ref 17 (a number printed in a supplementary file, which may have a reference list of its own: not looked up in the article's list); conditions: cited from earlier work
[4] = system: untreated pancreatic cancer; parameters: method as in ref 25 (a number printed in a supplementary file, which may have a reference list of its own: not looked up in the article's list); conditions: gemcitabine plus trametinib 2 mg QD; cited from earlier work
[5] = dose normalized to 2 mg
[6] = trametinib and its metabolites; cited from earlier work
[7] = cited from earlier work
[8] = system: KRAS-mutant NSCLC; parameters: method as in ref 24 (a number printed in a supplementary file, which may have a reference list of its own: not looked up in the article's list); conditions: cited from earlier work
[9] = biological target: pMEK1 kinase activity; parameters: method as in ref 19 (a number printed in a supplementary file, which may have a reference list of its own: not looked up in the article's list); conditions: cited from earlier work
[10] = system: CYP enzymes; BCRP, MRP2, OATP1B1, OATP1B3, OATP2B1, OCT1, MATE1, P-gp, BSEP; conditions: cited from earlier work
[11] = cited from earlier work; remark: listed apart in the source
[12] = system: BRAF V600E or V600K mutation-positive melanoma; conditions: 40 patients with prior BRAF inhibitor; 2 mg PO QD; cited from earlier work
[13] = cited from earlier work; remark: listed apart in the source
[14] = system: advanced cancer patients with varying degrees of hepatic dysfunction
[15] = 25° C; cited from earlier work
[16] = system: HCT-116 xenograft; parameters: method as in ref 17 (a number printed in a supplementary file, which may have a reference list of its own: not looked up in the article's list); conditions: cited from earlier work
[17] = system: PC3, BxPC3, and BT474 xenograft lines; conditions: no tumor regressions; cited from earlier work
[18] = system: rabbits; conditions: rabbit, in vivo; cited from earlier work
[19] = system: pERK, Ki67, and p27; parameters: method as in ref 19 (a number printed in a supplementary file, which may have a reference list of its own: not looked up in the article's list); conditions: 2 mg QD, cited from earlier work

SMILES: CC(=O)Nc1cccc(-n2c(=O)n(C3CC3)c(=O)c3c(Nc4ccc(I)cc4F)n(C)c(=O)c(C)c32)c1 [Trametinib, equimolecular combination of acetamide, N-[3-[3-cyclopropyl-5-[(2-fluoro-4-iodophenyl)amino]-3,4,6,7-tetrahydro6,8-dimethyl-2,4,7-trioxopyrido[4,3-d]pyrimidin-1(2H)-yl]phenyl] with 1,1’-sulfinylbis[methane]]
- Cardiomyopathy resolved ([1]; 10 of 14 patients): 71%
- Pruritis ([1]; All Grades): 10%
- Stomatitis ([1]; All Grades): 15%
- Pruritis ([1]; Grades 3 and 4): 2%
- Stomatitis ([1]; Grades 3 and 4): 2%
- Dose reduction required for skin toxicities ([1]; in vivo): 12%
- Severe skin toxicity ([1]; in vivo): 12%
- overall incidence of skin toxicity ([1]; in vivo): 87%
- permanent discontinuation for skin toxicities ([1]; in vivo): 1%
- median time to onset of skin toxicity ([1]; range: 1 to 221 days): 15 days
- median time to resolution of skin toxicity ([1]; range: 1 to 282 days): 48 days
- IC50 [2]: 0.7 nM
- duration of pERK inhibition ([3]; after the Day 7 dose): over 24 hours
- duration of pERK reduction ([3]; first dose 3 mg/kg, Day 1): more than 8 hours
- Median OS [4]: 8.4 months
- ORR [4]: 22%
- median PFS [4]: 16 weeks
- median duration of responses [4]: 23.9 weeks
- CLssF, Geo mean (%CV) ([5]; Mild (n = 6)): 5680.0 (45.5) mL/hr
- CLssF, Mean (±SD) ([5]; Mild (n = 6)): 6200.0 (±2818.6) mL/hr
- Cavg, Geo mean (%CV) ([5]; Mild (n = 6)): 14.7 (51.9) ng/mL
- Cavg, Mean (±SD) ([5]; Mild (n = 6)): 16.2 (±8.4) ng/mL
- Cmin, Geo mean (%CV) ([5]; Mild (n = 6)): 10.8 (57.3) ng/mL
- Cmin, Mean (±SD) ([5]; Mild (n = 6)): 12.1 (±7.0) ng/mL
- CLssF, Geo mean (%CV) ([5]; Mod (n = 3)): 6431.6 (8.4) mL/hr
- CLssF, Mean (±SD) ([5]; Mod (n = 3)): 6446.4(±542.6) mL/hr
- Cavg, Geo mean (%CV) ([5]; Mod (n = 3)): 13.0 (8.1) ng/mL
- Cavg, Mean (±SD) ([5]; Mod (n = 3)): 13.0 (±1.1) ng/mL
- Cmin, Geo mean (%CV) ([5]; Mod (n = 3)): 10.4 (22.4) ng/mL
- Cmin, Mean (±SD) ([5]; Mod (n = 3)): 10.5 (±2.4) ng/mL
- CLssF, Geo mean (%CV) ([5]; Norm (n = 10)): 4449.0 (36.0) mL/hr
- CLssF, Mean (±SD) ([5]; Norm (n = 10)): 4675.0 (±1683.6) mL/hr
- Cavg, Geo mean (%CV) ([5]; Norm (n = 10)): 18.7 (28.1) ng/mL
- Cavg, Mean (±SD) ([5]; Norm (n = 10)): 19.5 (±5.5) ng/mL
- Cmin, Geo mean (%CV) ([5]; Norm (n = 10)): 14.4 (29.8) ng/mL
- Cmin, Mean (±SD) ([5]; Norm (n = 10)): 15.1 (±4.5) ng/mL
- CLssF, Geo mean (%CV) ([5]; Sev (n = 3)): 8736.3 (36.5) mL/hr
- CLssF, Mean (±SD) ([5]; Sev (n = 3)): 9141.3 (±3337.1) mL/hr
- Cavg, Geo mean (%CV) ([5]; Sev (n = 3)): 9.5 (36.4) ng/mL
- Cavg, Mean (±SD) ([5]; Sev (n = 3)): 10.0 (±3.6) ng/mL
- Cmin, Geo mean (%CV) ([5]; Sev (n = 3)): 7.6 (32.3) ng/mL
- Cmin, Mean (±SD) ([5]; Sev (n = 3)): 7.9 (±2.5) ng/mL
- differences of PK parameters (Cmax, Cmin, Cavg, AUC0 − 24) between hepatic function groups ([5]; ANOVA): no significant differences; also recorded: not statistically different
- excreted in the feces [6]: ≥ 81%
- excreted in urine [6]: ≤ 19%
- difference in exposure, mild hepatic impairment vs normal hepatic function ([7]; 64 ([…]) subjects with mild hepatic impairment (NCI classification)): 2%
- oral clearance and exposure, mild hepatic impairment vs normal hepatic function ([7]; population PK analysis): not significantly different
- median PFS [8]: 11.7 weeks
- overall response rate (ORR) [8]: 12%
- IC50 [9]: 13 nM
- permeability [10]: high permeability
- substrate of CYP enzymes ([10]; in vitro): not a substrate
- substrate of human BCRP, MRP2, OATP1B1, OATP1B3, OATP2B1, OCT1 or MATE1 transporters ([10]; in vitro): not a substrate
- substrate for P-gp and BSEP ([10]; not expected to be clinically relevant): substrate
- terminal half-life ([11]; after single dose administration): 127 h
- volume of distribution (Vd) ([11]; following an IV microdose): 1060 L
- plasma IV clearance ([11]; human, in vivo, iv): 3.21 L/h
- plasma IV clearance as share of liver blood flow ([11]; human, in vivo, iv): approximately 1%
- half-life ([11]; patients with normal liver function): approximately 4 days
- absolute oral bioavailability ([11]; single 2 mg tablet relative to co-administered IV microdose): 72%
- decrease in AUC(0-∞) with a high-fat, high-calorie meal ([11]; single dose, vs fasted): 10%
- decrease in Cmax with a high-fat, high-calorie meal ([11]; single dose, vs fasted): 70%
- confirmed PR or CR [12]: None of the patients
- Cmax ([13]; 2 mg QD on Day 15): 23 ng/mL
- mean AUC0-24 ([13]; 2 mg QD on Day 15): 376 ng·h/mL
- Between-subject variability in exposure, AUC0-24 ([13]; across all dosing regimens): 20-41%
- Between-subject variability in exposure, Cmax ([13]; across all dosing regimens): 27-50%
- effective t1/2 ([13]; in vivo): approximately 4.5 days
- steady state reached by ([13]; in vivo): ~15 days
- Death related to TRAEs ([14]; Mild 2 mg): 0 (0%)
- Death related to TRAEs ([14]; Mod DL1 1.5 mg): 0 (0%)
- Death related to TRAEs ([14]; Mod DL+1 2 mg): 0 (0%)
- Death related to TRAEs ([14]; Norm 2 mg): 0 (0%)
- Death related to TRAEs ([14]; Sev DL1 1 mg): 0 (0%)
- Death related to TRAEs ([14]; Sev DL+1 1.5 mg): 0 (0%)
- Death related to TRAEs ([14]; Total Patients): 0 (0%)
- Death related to TRAEs ([14]; Total Patients, listed as trametinib): No treatment related deaths
- Alanine aminotransferase increased ([14]; human, in vivo): 9 (20%)
- Anemia ([14]; human, in vivo): 10 (23%)
- Blood alkaline phosphatase increased ([14]; human, in vivo): 9 (20%)
- Grade 3 TRAEs ([14]; human, in vivo): 2 events
- Hypertension ([14]; human, in vivo): 8 (18%)
- Hypomagnesemia ([14]; human, in vivo): 8 (18%)
- Hyponatremia ([14]; human, in vivo): 9 (20%)
- Maculopapular rash ([14]; human, in vivo): 11 (23%)
- Mucositis ([14]; human, in vivo): 6 (14%)
- Thrombocytopenia ([14]; human, in vivo): 10 (23%)
- Treatment discontinuation due to TRAEs ([14]; human, in vivo): 3 (7%)
- Treatment discontinuation due to non-TRAEs ([14]; human, in vivo): 10 (23%)
- Vomiting ([14]; human, in vivo): 9 (20%)
- grade 3 gamma-glutamyl transferase increased ([14]; human, in vivo): 1 patient
- grade 3 pneumonitis ([14]; human, in vivo): 1 patient
- Approximate Solubility in water [15]: < 0.1 µg/mL
- TGI [16]: 83%
- TGI [17]: 44-46%
- Embryofetal toxicity [18]: embryotoxic and abortifacient
- median inhibition of pERK ([19]; BRAF or NRAS mutation-positive metastatic melanoma): 62%
- median increase in p27 [19]: 175%
- median inhibition of Ki67 [19]: 83%
